Source: PubChem BioAssay (NCI)
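Protocol summary: plate cells (96-well), add compound at 5 concentrations, incubate 48 h, interpolate endpoints linearly. GI50: concentration for 50% inhibition of growth. Definition used: TGI = concentration required for complete inhibition of growth.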

How the values were obtained:
Assay in all cases: NCI anticancer screen, dose series, 48 h
[1] = system: SK-MEL-5 melanoma
[2] = system: TK-10 renal
[3] = system: A549 NSCLC
[4] = system: RPMI-8226 leukemia
[5] = system: U251 CNS
[6] = system: SW-620 colon
[7] = system: IGROV1 ovarian
[8] = system: NCI-H23 lung
[9] = system: SF-539 CNS
[10] = system: RXF 393 renal

Structure (SMILES)	TGI [1]	TGI [2]	TGI [3]	TGI [4]	TGI [5]	TGI [6]	TGI [7]	TGI [8]	TGI [9]	TGI [10]	GI50 [1]	GI50 [2]	GI50 [3]	GI50 [4]	GI50 [5]	GI50 [6]	GI50 [7]	GI50 [8]	GI50 [9]	GI50 [10]
CCOC(=O)CCn1cnc(N)n1	> 100 µM	> 100 µM	> 100 µM	> 100 µM	> 100 µM	> 100 µM	> 100 µM	> 100 µM	> 100 µM	> 100 µM										
C=C1C(C(=O)O)C1C(=O)O (stereo unspecified)	> 100 µM	> 100 µM	> 100 µM	> 100 µM	> 100 µM	> 100 µM	> 100 µM	> 100 µM	> 100 µM	> 100 µM										
Oc1ccc(/C=N/NC(=S)Nc2cccnc2)nc1	> 100 µM	> 25.7 µM	> 100 µM	76.4 µM	> 67 µM	> 100 µM	> 100 µM	61.9 µM	19.6 µM	> 61.2 µM										
C/C(=N\NC(=S)N1CCN(c2ccccn2)CC1)c1cccc2cccnc12	> 43.2 µM	> 100 µM	> 100 µM	20.2 µM	> 29.7 µM	> 100 µM	> 100 µM	> 100 µM	> 31.6 µM	> 100 µM										
CC(=O)O[C@H]1CC[C@]2(C)C3C(=O)C[C@]4(C)[C@@H](C(C)CCC(=O)O)CC[C@@]4(C)[C@@H]3CC[C@H]2C1(C)C (stereo partly specified)	17.5 µM	> 50 µM	> 50 µM	> 50 µM	20 µM	> 50 µM	> 50 µM	> 50 µM	35.2 µM	> 50 µM	8.53 µM	21.8 µM	15.6 µM	9.79 µM	7 µM	19.4 µM	34.7 µM	19.1 µM	12.8 µM	15.5 µM
CCN(CC)CCCC(C)Nc1ccnc(/C=C/c2ccc(Cl)cc2)c1 (stereo unspecified)	6.17 µM	4.8 µM	4.79 µM	5.74 µM	3.12 µM	3.91 µM	9.47 µM	23.7 µM	3.8 µM	2.92 µM										1.44 µM
CC(=O)c1ccc(Oc2c3ccccc3nc3occc23)cc1	> 100 µM	> 100 µM	> 100 µM	> 100 µM	> 100 µM	> 100 µM	> 100 µM	> 100 µM	8.41 µM	56.7 µM	8.75 µM	11.4 µM	61.9 µM	4.63 µM	4.21 µM	4.87 µM	55.7 µM	18.9 µM	2.53 µM	6.26 µM
CC(=O)/C=C/c1ccc(N(CCO)Cc2ccc(C(C)(C)C)cc2)cc1	146 µM	237 µM	182 µM	72.5 µM	194 µM	259 µM	260 µM	235 µM	212 µM	208 µM	39.9 µM	112 µM	56.5 µM	28.2 µM	66.1 µM	119 µM	112 µM	63.7 µM	84.3 µM	65.5 µM
C[C@@H](Oc1cc(-c2cnn(C3CCNCC3)c2)cnc1N)c1c(Cl)cc(F)cc1Cl	2.89 µM	11.6 µM	11.3 µM	8.6 µM	7.65 µM	8.13 µM	16.7 µM	14.8 µM	3.3 µM	3.09 µM	1.51 µM	3.6 µM	1.14 µM	2.41 µM	1.93 µM	0.893 µM	3.31 µM	1.93 µM	1.67 µM	1.5 µM
COc1ccc(-c2nnc(Nc3nc(O)c(C4=c5cc(Br)ccc5=NC4=O)s3)o2)cc1	> 59.5 µM	51 µM	> 100 µM	> 66.5 µM	30.7 µM	> 100 µM	23.8 µM	> 69.3 µM	41.3 µM	> 55.6 µM	18.3 µM	18.9 µM	26.8 µM	17.3 µM	15.4 µM	14.2 µM	2.68 µM	23.6 µM	17.9 µM	5.48 µM
c1ccc2c(c1)[nH]c1c3ccccc3sc21	> 100 µM	> 100 µM	> 100 µM	> 100 µM	> 100 µM	> 100 µM	> 100 µM	> 100 µM	> 100 µM	> 100 µM										
c1ccc(/C(=N\Nc2nc3ccccc3s2)c2ccccn2)cc1	7.91 µM	37.5 µM	> 100 µM	27.9 µM	> 40.9 µM	> 100 µM	> 48.2 µM	> 100 µM	> 56.6 µM	23.3 µM										
COc1cccc(-c2nn(-c3ccccc3)cc2-c2ccnc(NCCCNS(=O)(=O)c3ccc(C(F)(F)F)cc3)c2)c1	5.04 µM	> 100 µM	> 100 µM	> 100 µM	> 100 µM	> 100 µM	> 100 µM	> 100 µM	> 100 µM	> 100 µM	2.18 µM	9.25 µM	6.65 µM	3.63 µM	5.63 µM	11.2 µM	10.7 µM	4.86 µM	5.66 µM	3.01 µM
Cn1cc(-c2nc(-c3cn(C)c4ncccc34)cs2)c2ccccc21	3.06 µM	11.6 µM	> 100 µM	> 100 µM	11.4 µM	> 100 µM	38.7 µM	23.9 µM	4.99 µM	4.09 µM	0.842 µM	2.4 µM	1.43 µM	3.72 µM	1.53 µM	1.24 µM	1.39 µM	3.14 µM	1.76 µM	1.53 µM
C=C1C(=O)O[C@H]2[C@H]1CC/C(COC(=O)/C=C\C(=O)NCc1ccc(Cn3c(=O)sn(-c4ccc(Cl)cc4)c3=O)cc1)=C\CC[C@@]1(C)O[C@@H]21	1.52 µM	1.5 µM	2.35 µM	2.05 µM	1.6 µM	0.915 µM	1.36 µM	1.88 µM	1.43 µM	1.09 µM	0.825 µM	0.775 µM	0.871 µM	0.27 µM	0.713 µM	0.242 µM	0.638 µM	0.884 µM	0.748 µM	0.476 µM
C=C1C(=O)O[C@H]2[C@H]1CC/C(COC(=O)N[C@H](Cc1c[nH]c3ccccc13)C(=O)OC)=C\CC[C@@]1(C)O[C@@H]21	20.5 µM	5.07 µM	32.7 µM	5.83 µM	22.1 µM	4.17 µM	5.35 µM	17.7 µM	5.37 µM	2.66 µM	7.03 µM	2.1 µM	14.9 µM	2.02 µM	10 µM	1.78 µM	1.85 µM	4.3 µM	2.01 µM	1.28 µM
O=C(OCc1ccccc1)n1cccc1	> 100 µM	> 100 µM	> 100 µM	> 100 µM	> 100 µM	> 100 µM	> 100 µM	> 100 µM	> 100 µM	> 100 µM										
Cc1nn(-c2ccccc2)c2nc(C)n(-c3ccc(Br)cc3)c(=O)c12	11.1 µM	> 100 µM	> 100 µM	> 54.6 µM	> 100 µM	> 100 µM	> 100 µM	> 100 µM	7.09 µM	0.972 µM	0.516 µM	5.53 µM	0.927 µM	0.571 µM	0.479 µM	0.353 µM	0.584 µM	0.823 µM	0.35 µM	0.286 µM
C=CCN1C(=O)[C@]2(SC1=S)[C@H](c1cccc(Cl)c1)CN(C)[C@]21C(=O)NC2C=CC(Cl)=C[C@H]21 (stereo partly specified)	18.2 µM	26.9 µM	12.9 µM	4.97 µM	4.62 µM	11.6 µM	16.5 µM	22 µM	25.6 µM	5.8 µM	5.28 µM	13 µM	3.3 µM	1.64 µM	2.08 µM	2.89 µM	2.98 µM	6.12 µM	10.3 µM	2.14 µM
N/C(=N/S(=O)(=O)c1cc(C(=O)Nc2ccc(F)cc2)c(Cl)cc1SCc1ccccc1)Nc1ccccc1O	4.57 µM	8.61 µM	4.71 µM	6.1 µM	3.22 µM	3.54 µM	3.57 µM	3.86 µM	4.23 µM	3.94 µM	1.85 µM	2.8 µM	2.36 µM	2.61 µM	1.78 µM	1.88 µM	1.88 µM	2.04 µM	1.94 µM	1.93 µM
NS(=O)(=O)c1cc(C(=O)O)c(Cl)c([N+](=O)[O-])c1Cl	> 100 µM	> 100 µM	> 100 µM	> 100 µM	> 100 µM	> 100 µM	> 100 µM	> 100 µM	> 100 µM	> 100 µM										
CCc1cccc(NC(=O)c2cc(/C=C/c3ccccc3)[nH]c(=S)n2)c1	> 100 µM	> 100 µM	> 100 µM	> 100 µM	> 100 µM	> 100 µM	> 100 µM	> 100 µM	> 100 µM	> 100 µM										
Nc1ncnc2c1ncn2CCCCC(=O)O	> 100 µM	> 100 µM	> 100 µM	> 100 µM	> 100 µM	> 100 µM	> 100 µM	> 100 µM	> 100 µM	> 100 µM										
CCC(C(=O)[C@@H](C)[C@@H](O)[C@H](C)[C@@H]1O[C@@H]([C@@H](CC)C(=O)ONC(=O)c2ccccc2)CC[C@@H]1C)[C@H]1O[C@]2(C=CC(=O)[C@]3(CC[C@@](C)([C@H]4CC[C@](O)(CC)[C@H](C)O4)O3)O2)[C@H](C)C[C@@H]1C (stereo partly specified)	0.361 µM	2.44 µM	1.63 µM	2.3 µM	1.6 µM	2.71 µM	0.631 µM	2.08 µM	1.71 µM	1.74 µM	0.105 µM	1.1 µM	0.168 µM	0.0838 µM	0.11 µM	0.582 µM	0.198 µM	0.175 µM	0.262 µM	0.0957 µM
C/C=C(\C)C(=O)O[C@@H]1C=CC(=O)O[C@H]1CNC(=O)[C@H](C)O	38.8 µM	43.2 µM	> 88.4 µM	33.3 µM	54.7 µM	25.4 µM	> 78.1 µM	> 75.4 µM	57.5 µM	42.9 µM	19.6 µM	18.9 µM	30.5 µM	9.12 µM	20.5 µM	10 µM	26.6 µM	25.6 µM	23.3 µM	18.3 µM
N#CC1=C(c2ccccc2)OC2(N)OC(c3ccccc3)=C(C#N)C12C#N (stereo unspecified)	> 100 µM	> 100 µM	> 100 µM	> 100 µM	> 100 µM	> 100 µM	> 100 µM	> 100 µM	> 100 µM	> 100 µM										
C1=C\CCCCN2CC[C@H]3[C@H](CCCC/C=C\CCCN4C[C@@H](CCCCC/1)C[C@@H]3C4)C2	16.7 µM	12.4 µM	26.8 µM	6.16 µM	16.5 µM	19.4 µM	23.1 µM	30.2 µM	11.5 µM	8.17 µM	4.75 µM	2.98 µM	12.1 µM	2.06 µM	4.25 µM	6.96 µM	9.27 µM	14.3 µM	3.24 µM	2.72 µM
